Source: PMC8212709 (Clinical and Translational Science, 2021)

Legend:
[1] = test system: FcεRI‐mediated activation of basophils; test: Basophil activation test; type: in vivo, human
[2] = dogs, nonclinical, no reference given, cited from earlier work
[3] = nonclinical studies, oral solution; no reference given; cited from earlier work
[4] = rat, most sensitive toxicological species; nonclinical, no reference given; cited from earlier work

SMILES: C=CC(=O)N1CC[C@H](Oc2nc(-c3n[nH]c(=O)[nH]3)cc3ccccc23)C1 [TAK‐020]
- reduction from baseline in the %CD63‐positive basophils ([1]; MRD, day 9 after q.d. administration, doses ≥3.75 mg (3.75 to 60 mg)): > 80%
- reduction in the %CD63‐positive basophils sustained throughout the entire dosing interval (predose to 24 hours postdose) ([1]; MRD, ≥ 45‐mg doses, after multiple dosing for 9 days): ≥ 80%
- reduction in the %CD63‐positive basophils ([1]; SRD, 0.1‐mg and 0.5‐mg dose groups): essentially no reduction
- time to return to baseline basophil activity postdose ([1]; SRD, single doses ≥ 4.4 mg): 36 to 72 h
- reduction from baseline of FcεRI‐mediated activation of basophils (%CD63‐positive basophils) ([1]; SRD, single doses ≥ 4.4 mg (4.4–105 mg)): > 80%
- terminal disposition phase elimination half‐life (t1/2z) ([2]; after oral administration): 3.8 to 6.7 h
- oral bioavailability [2]: 8.17%
- time of peak plasma concentrations postdose [3]: ≤ 2 h
- no observed adverse effect level exposure limit (total AUC) [4]: 63 ng·h/mL
